Calls of active or inactive are those of the source. The calls are words filed in the database; no cut-off is given here.
Legend:
[1] = tested on: COLO 205; assay: Growth inhibition of human COLO205 cells incubated for 48 hrs by SRB assay; format: functional; details: COLO 205, 48 h, pooled result: one value given for 7 cell lines, strains, targets or settings
[2] = target: T1, Dihydrofolate reductase (Homo sapiens) (UniProt P00374); assay: Binding affinity to DHFR assessed as change in UV-Vis spectra at 10 uM in HEPES buffer at pH 7.2 by UV-Visible spectroscopy
T1 sequence (whole entry): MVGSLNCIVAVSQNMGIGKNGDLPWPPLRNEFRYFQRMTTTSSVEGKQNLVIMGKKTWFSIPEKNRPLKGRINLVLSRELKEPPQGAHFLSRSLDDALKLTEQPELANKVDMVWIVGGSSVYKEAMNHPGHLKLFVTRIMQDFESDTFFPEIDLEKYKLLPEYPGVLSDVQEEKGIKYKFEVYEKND

[3] = target: T1, Dihydrofolate reductase (Homo sapiens); assay: Binding affinity to DHFR by [1H]NMR spectroscopy
[4] = (§1) Growth inhibition of human NCI60 cells incubated for 48 hrs by SRB assay; format: functional; details: NCI60, 48 h
[5] = Total tumor growth inhibition of human NCI60 cells incubated for 48 hrs by SRB assay; format: functional; details: NCI60, 48 h
[6] = Toxicity against human NCI60 cells incubated for 48 hrs by SRB assay; format: cell-based; details: nci60, 48 h
[7] = Therapeutic index, ratio of LC50 for human NCI60 cells to GI50 for human NCI60 cells; format: cell-based; details: read-out: TI
[8] = target: T1, Dihydrofolate reductase (Homo sapiens)
Description: Inhibition of DHFR reduction in conversion of DHF to THF in presence of NADPH by DHFR assay

[9] = tested on: NCI60; assay: as §1; format: functional
[10] = target: Thymidylate synthase (Homo sapiens) (UniProt P04818); assay: Binding affinity to thymidylate synthase assessed as change in UV-Vis spectra at 10 uM in HEPES buffer at pH 7.2 by UV-Visible spectroscopy
[11] = target: T1, Dihydrofolate reductase (Homo sapiens); assay: Binding affinity to DHFR at 32 mM by [1H]NMR spectroscopy
[12] = target: Thymidine phosphorylase (Homo sapiens) (UniProt P19971); assay: Binding affinity to […] assessed as change in UV-Vis spectra at 10 uM in HEPES buffer at pH 7.2 by UV-Visible spectroscopy
[13] = target: T1, Dihydrofolate reductase (Homo sapiens); assay: Binding affinity to DHFR at 48 mM by [1H]NMR spectroscopy
[14] = tested on: NCI-H522; assay: Growth inhibition of human NCI-H522 cells incubated for 48 hrs by SRB assay; format: functional; details: NCI-H522, 48 h
[15] = tested on: UACC-257; assay: Growth inhibition of human UACC257 cells incubated for 48 hrs by SRB assay; format: functional; details: UACC-257, 48 h
[16] = tested on: OVCAR-3; assay: Growth inhibition of human OVCAR3 cells incubated for 48 hrs by SRB assay; format: functional; details: OVCAR-3, 48 h
[17] = tested on: A498; assay: Growth inhibition of human A498 cells incubated for 48 hrs by SRB assay; format: functional; details: A498, 48 h
[18] = tested on: MCF7; assay: Growth inhibition of human MCF7 cells incubated for 48 hrs by SRB assay; format: functional; details: MCF7, 48 h
[19] = tested on: Hs-578T; assay: Growth inhibition of human Hs578T cells incubated for 48 hrs by SRB assay; format: functional
[20] = tested on: MDA-MB-468; assay: Growth inhibition of human MDA-MB-468 cells incubated for 48 hrs by SRB assay; format: functional; details: MDA-MB-468, 48 h
[21] = target: T1, Dihydrofolate reductase (Homo sapiens); assay: Inhibition of DHFR reduction in conversion of DHF to THF at 100 nM in presence of NADPH by DHFR assay
[22] = target: T1, Dihydrofolate reductase (Homo sapiens); assay: Inhibition of DHFR reduction in conversion of DHF to THF at 1 uM in presence of NADPH by DHFR assay
[23] = target: T1, Dihydrofolate reductase (Homo sapiens); assay: Inhibition of DHFR reduction in conversion of DHF to THF at 10 uM in presence of NADPH by DHFR assay
[24] = target: T1, Dihydrofolate reductase (Homo sapiens); assay: Inhibition of DHFR reduction in conversion of DHF to THF at 100 uM in presence of NADPH by DHFR assay
[25] = target: T1, Dihydrofolate reductase (Homo sapiens); assay: Inhibition of DHFR reduction in conversion of DHF to THF at 10 nM in presence of NADPH by DHFR assay
[26] = tested on: SR; assay: Growth inhibition of human SR cells incubated for 48 hrs by SRB assay; format: functional
[27] = cells; details: Homo sapiens, NCI60, 48 h

Chain of Thymidine phosphorylase (Homo sapiens) (P19971 whole entry, looked up): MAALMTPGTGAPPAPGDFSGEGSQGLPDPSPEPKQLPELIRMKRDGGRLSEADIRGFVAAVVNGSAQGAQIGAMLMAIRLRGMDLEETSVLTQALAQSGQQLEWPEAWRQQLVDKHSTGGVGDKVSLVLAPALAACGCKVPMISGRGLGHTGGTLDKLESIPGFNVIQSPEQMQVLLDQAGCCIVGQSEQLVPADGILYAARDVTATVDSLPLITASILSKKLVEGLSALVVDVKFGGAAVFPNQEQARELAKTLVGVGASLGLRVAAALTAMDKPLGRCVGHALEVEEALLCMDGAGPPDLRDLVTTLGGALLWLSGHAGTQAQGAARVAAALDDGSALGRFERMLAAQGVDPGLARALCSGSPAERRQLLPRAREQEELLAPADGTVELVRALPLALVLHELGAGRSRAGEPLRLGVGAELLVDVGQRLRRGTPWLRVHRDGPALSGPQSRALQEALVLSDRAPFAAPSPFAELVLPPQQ
Chain of Thymidylate synthase (Homo sapiens) (P04818 2-313 limits assumed): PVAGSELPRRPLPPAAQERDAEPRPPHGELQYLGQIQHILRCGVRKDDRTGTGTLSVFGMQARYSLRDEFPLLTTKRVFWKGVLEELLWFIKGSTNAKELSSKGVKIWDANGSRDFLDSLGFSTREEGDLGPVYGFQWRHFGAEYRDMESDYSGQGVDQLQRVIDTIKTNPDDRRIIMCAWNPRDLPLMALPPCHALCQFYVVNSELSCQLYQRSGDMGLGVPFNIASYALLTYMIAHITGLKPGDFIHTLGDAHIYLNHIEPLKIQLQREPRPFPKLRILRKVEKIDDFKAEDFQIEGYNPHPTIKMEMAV

SMILES	Activity [2]	Activity [3]	GI50 [4] [nM]	TGI [5] [nM]	LC50 [6] [nM]	selectivity ratio [7]	IC80 [8] [nM]	other results
CC1=NN(c2cccc(Cl)c2)C(=O)/C1=C\c1cn(CC(O)CN2CCCCC2)c2ccccc12 (centres undefined)	inactive	Active	5500	16900	47800	18.4	1060	GI50 [1]: 1700 nM
O=C1/C(=C\c2cn(CC(O)CN3CCCCC3)c3ccccc23)c2ccccc2N1c1c(Cl)cccc1Cl (centres undefined)	inactive	Active	1800	3200	9100	5.1	890	–
COc1cc(C=C2C(=O)N(C)C(=O)N(C)C2=O)cc(OC)c1O	inactive	inactive	–	–	–	–	–	growth inhibition (GI) [9]: inactive
COc1cc(/C=C2\C(=O)N(c3cccc(Cl)c3)N=C2C)cc(OC)c1O	inactive	inactive	–	–	–	–	–	growth inhibition (GI) [9]: inactive
COc1cc(/C=C2\C(=O)N(c3c(Cl)cccc3Cl)c3ccccc32)cc(OC)c1O	–	–	1500	19400	61600	41.1	10000	Activity [10]: inactive; Activity [11]: Active; K [2]: 1.6 ×10⁷ /M; Activity [12]: inactive
O=C1/C(=C\c2ccccn2)c2ccccc2N1c1c(Cl)cccc1Cl	inactive	Active	2000	9100	27500	13.7	–	–
COc1cc(/C=C2\C(=O)Nc3ccccc32)cc(OC)c1O	–	–	3500	21400	72400	–	–	Activity [13]: Active; Activity [10]: inactive; GI50 [14]: 600 nM; GI50 [15]: 600 nM; GI50 [16]: 600 nM; GI50 [17]: 600 nM; GI50 [18]: 600 nM; GI50 [19]: 600 nM; GI50 [20]: 600 nM; inhibition [21]: > 90%; inhibition [22]: > 90%; inhibition [23]: > 90%; inhibition [24]: > 90%; inhibition [25]: > 90%; GI50 [26]: 600 nM; IC90 [8]: 1360 nM; GI50 [27]: 600 nM; Activity [12]: inactive
CC1=NN(c2cccc(Cl)c2)C(=O)/C1=C\c1c[nH]c2ccc(Br)cc12	inactive	Active	3900	17700	50100	12.8	–	–
COc1ccc2c(c1)c(CC(=O)O)c(C)n2C(=O)c1ccc(Cl)cc1 [INDOMETHACIN]	–	–	64300	–	–	–	–	–
